Source: patent US8349791B2, “Polypeptides that bind membrane proteins” (The Trustees of the University of Pennsylvania, priority 2006, dated 2013)
Peptide text beside a SMILES is read from it.

Tests used:
αVβ3 = target: T1, αVβ3 (Homo sapiens, UniProt P06756); test: Platelet adhesion to immobilized osteopontin; assay type: cell-based
T1 construct: Platelets express a second integrin with a β3 subunit, αVβ3; endogenous in cells; host or cells: gel-filtered human platelets
Description: The integrin αVβ3 mediates adhesion of platelets to the matrix protein osteopontin, potentially exposed to the circulating blood by rupture of an atherosclerotic plaque. […] The potency of anti-αv in inducing platelet adhesion to osteopontin was approximately 10-fold lower than that of anti-αIIb in inducing platelet aggregation (FIG. 11). Adhesion of platelets in 100 μl aliquots of gel-filtered human platelets to immobilized osteopontin was induced by the indicated concentrations of anti-αV, either alone or in the presence of the calcium chelator 2.5 mM EDTA or the global platelet signal transduction inhibitor 2 μM PGE1. Platelets stimulated by 20 μM ADP served as a positive control. Platelet adhesion was quantitated using a colorimetric assay based on measurement of platelet acid phosphatase activity. The data shown in FIG. 11 are the mean and standard error of measurements made in triplicate. Anti-αV-induced adhesion was prevented by agents that inhibit the interaction of αVβ3's extracellular ligand-binding site with osteopontin, including EDTA or the specific RGD-containing αVβ3 antagonist XJ735, confirming that anti-αV induced platelet adhesion to osteopontin is mediated by αVβ3.
Platelet adhesion to osteopontin was measured as previously described. See Fleming K G J. Mol. Biol. 323, 563-571 (2002). Briefly, 96-well flat bottom microtiter plates (Immulon 2, Dynatech, Chantilly Va.) were coated with 5 μg/ml of recombinant osteopontin dissolved in 50 mM NaHCO3 buffer, pH 8.0, containing 150 mM NaCl. Unoccupied protein binding sites on the wells were blocked with 5 mg/ml bovine serum albumin dissolved in the same buffer. One hundred μl aliquots of a gel-filtered platelet suspension containing ≈2-5×10^6 platelets were added to the protein-coated wells in the absence or presence of anti-αV or ADP. Following an incubation for 30 min at 37° C. without agitation, the plates were washed four times and the number of adherent platelets measured using a colorimetric assay that measure platelet acid phosphatase activity. The polypeptide was added from a DMSO solution such that the final concentration of DMSO was no greater than 0.5%. All controls also had 0.5% DMSO in the buffer.

αIIbβ3 = target: T2, αIIbβ3 (Homo sapiens, UniProt P08514); test: FACS analysis of FITC-fibrinogen binding to platelets; assay type: cell-based
T2 construct: trapped from a suspension of gel filtered human platelets or CHO cells; endogenous in cells; host or cells: gel-filtered human platelets
T2 sequence (P08514 891-1039 limits assumed): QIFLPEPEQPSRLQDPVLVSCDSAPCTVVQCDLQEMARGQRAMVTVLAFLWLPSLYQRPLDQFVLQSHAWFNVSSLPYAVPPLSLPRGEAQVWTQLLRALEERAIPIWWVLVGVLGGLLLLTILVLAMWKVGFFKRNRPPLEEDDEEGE
T2 sequence (P08514 32-887 partner limits assumed): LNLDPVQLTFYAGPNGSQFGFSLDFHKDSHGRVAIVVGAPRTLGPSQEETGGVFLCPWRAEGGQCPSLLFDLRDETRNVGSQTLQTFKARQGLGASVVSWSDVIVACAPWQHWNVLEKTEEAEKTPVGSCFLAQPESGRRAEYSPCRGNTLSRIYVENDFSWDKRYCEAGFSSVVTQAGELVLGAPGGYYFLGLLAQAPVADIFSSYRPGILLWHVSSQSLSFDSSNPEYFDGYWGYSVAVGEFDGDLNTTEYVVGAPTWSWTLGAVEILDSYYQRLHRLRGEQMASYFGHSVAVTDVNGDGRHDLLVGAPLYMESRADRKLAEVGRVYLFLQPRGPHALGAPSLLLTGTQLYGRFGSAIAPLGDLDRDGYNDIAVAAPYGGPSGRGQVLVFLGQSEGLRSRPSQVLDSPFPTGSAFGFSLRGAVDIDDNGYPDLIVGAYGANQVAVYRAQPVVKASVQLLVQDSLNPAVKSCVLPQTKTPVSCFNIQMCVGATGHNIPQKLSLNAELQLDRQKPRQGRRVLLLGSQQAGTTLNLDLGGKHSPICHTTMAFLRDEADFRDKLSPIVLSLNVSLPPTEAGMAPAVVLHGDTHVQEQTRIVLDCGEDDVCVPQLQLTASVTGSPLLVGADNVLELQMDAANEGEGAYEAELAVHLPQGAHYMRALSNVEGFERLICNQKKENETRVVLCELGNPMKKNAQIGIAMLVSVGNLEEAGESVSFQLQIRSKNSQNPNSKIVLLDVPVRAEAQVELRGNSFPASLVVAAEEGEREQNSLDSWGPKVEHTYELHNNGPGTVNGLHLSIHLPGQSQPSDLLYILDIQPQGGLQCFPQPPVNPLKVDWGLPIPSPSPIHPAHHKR
T2 sequence (P05106 27-788 partner): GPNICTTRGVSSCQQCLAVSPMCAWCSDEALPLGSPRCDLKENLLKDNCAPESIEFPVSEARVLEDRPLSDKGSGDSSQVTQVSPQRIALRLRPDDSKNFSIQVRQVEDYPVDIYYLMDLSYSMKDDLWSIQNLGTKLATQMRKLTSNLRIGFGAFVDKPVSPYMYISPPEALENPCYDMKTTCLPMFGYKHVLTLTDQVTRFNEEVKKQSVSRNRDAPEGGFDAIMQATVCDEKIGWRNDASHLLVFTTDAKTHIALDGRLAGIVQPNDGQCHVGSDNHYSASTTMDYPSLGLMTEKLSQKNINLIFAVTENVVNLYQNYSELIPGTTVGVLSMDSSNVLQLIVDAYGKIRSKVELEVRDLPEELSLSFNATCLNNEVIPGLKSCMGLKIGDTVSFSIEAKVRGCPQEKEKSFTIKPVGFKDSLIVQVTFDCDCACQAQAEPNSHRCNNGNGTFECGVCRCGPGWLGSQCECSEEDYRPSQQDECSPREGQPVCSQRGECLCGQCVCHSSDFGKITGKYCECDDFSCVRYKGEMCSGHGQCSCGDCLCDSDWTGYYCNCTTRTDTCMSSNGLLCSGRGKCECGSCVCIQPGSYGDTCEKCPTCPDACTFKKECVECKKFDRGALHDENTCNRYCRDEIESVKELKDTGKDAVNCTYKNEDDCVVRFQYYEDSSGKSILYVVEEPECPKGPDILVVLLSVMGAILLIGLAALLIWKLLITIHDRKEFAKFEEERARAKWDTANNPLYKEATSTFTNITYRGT
Description: Freshly isolated platelets were added to 200 μg/ml FITC-conjugated fibrinogen, then incubated with 20 μM ADP or 2 μM of the anti-αIIb polypeptide in the presence or in the absence of 5 mM EDTA for 3 min at room temperature. After incubation, the platelets were fixed with 0.37% formalin in PBS buffer for 10 min, then washed and examined by FACS analysis as previously reported. See Ulmschneider M B et al. Proteins: Struct. Funct. Bioinformat. 59, 252-265 (2005). The polypeptide was added from a DMSO solution such that the final concentration of DMSO was no greater than 0.5%. All controls also had 0.5% DMSO in the buffer.

[1] = target: T3, CHO cells expressing αIIbβ3 (Homo sapiens, UniProt P08514); test: Force spectroscopy (laser tweezers), CHO cells and fibrinogen-coated beads; assay type: cell-based, Chinese hamster; settings: 0.5 μM polypeptide
T3 construct: expressed in transfected cells; host or cells: CHO cells
T3 sequence (P08514 891-1039 limits assumed): as the sequence (P08514 891-1039 limits assumed) above
T3 sequence (P08514 32-887 partner limits assumed): as the sequence (P08514 32-887 partner limits assumed) above
T3 sequence (P05106 27-788 partner): as the sequence (P05106 27-788 partner) above
Text: Litvinov R I et al. Proc. Natl. Acad. Sci. USA. 99, 7426-31 (2002). Recombinant human OPN, prepared as previously described (Bennett J S et al. J. Biol. Chem. 272, 8137-40 (1997)) or purified human fibrinogen was covalently bound to 0.93 μm carboxylate-modified latex beads. Individual cells, trapped from a suspension of gel filtered human platelets or CHO cells, were manually attached to 5 μm diameter silica pedestals coated with polylysine. An OPN- or fibrinogen-coated bead, trapped by the laser light, was then brought into proximity of an immobilized cell, oscillated at 50 Hz, and then brought into repeated intermittent contact with the cell by micromanipulation. Data collection was initiated at the first contact between the bead and the cell. Rupture forces following repeated contacts were collected for periods of several seconds to one minute. Individual forces measured during each contact-detachment cycle were collected into 10 pN-wide bins. The number of events in each bin was then plotted against the average force for that bin after normalizing for the total number of interaction cycles. Thus, the percentage of events in a particular force range (bin) represents the probability of rupture events at that tension. […] Therefore, rupture forces in this range were not considered when the data were analyzed. […]

T1 sequence (P06756 891-1048 limits assumed): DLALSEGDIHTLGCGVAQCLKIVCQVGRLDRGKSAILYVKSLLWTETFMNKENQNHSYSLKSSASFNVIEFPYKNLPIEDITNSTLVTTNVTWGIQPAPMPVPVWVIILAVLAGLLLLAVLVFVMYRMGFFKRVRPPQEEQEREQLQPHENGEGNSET
T1 sequence (P06756 31-889 partner limits assumed): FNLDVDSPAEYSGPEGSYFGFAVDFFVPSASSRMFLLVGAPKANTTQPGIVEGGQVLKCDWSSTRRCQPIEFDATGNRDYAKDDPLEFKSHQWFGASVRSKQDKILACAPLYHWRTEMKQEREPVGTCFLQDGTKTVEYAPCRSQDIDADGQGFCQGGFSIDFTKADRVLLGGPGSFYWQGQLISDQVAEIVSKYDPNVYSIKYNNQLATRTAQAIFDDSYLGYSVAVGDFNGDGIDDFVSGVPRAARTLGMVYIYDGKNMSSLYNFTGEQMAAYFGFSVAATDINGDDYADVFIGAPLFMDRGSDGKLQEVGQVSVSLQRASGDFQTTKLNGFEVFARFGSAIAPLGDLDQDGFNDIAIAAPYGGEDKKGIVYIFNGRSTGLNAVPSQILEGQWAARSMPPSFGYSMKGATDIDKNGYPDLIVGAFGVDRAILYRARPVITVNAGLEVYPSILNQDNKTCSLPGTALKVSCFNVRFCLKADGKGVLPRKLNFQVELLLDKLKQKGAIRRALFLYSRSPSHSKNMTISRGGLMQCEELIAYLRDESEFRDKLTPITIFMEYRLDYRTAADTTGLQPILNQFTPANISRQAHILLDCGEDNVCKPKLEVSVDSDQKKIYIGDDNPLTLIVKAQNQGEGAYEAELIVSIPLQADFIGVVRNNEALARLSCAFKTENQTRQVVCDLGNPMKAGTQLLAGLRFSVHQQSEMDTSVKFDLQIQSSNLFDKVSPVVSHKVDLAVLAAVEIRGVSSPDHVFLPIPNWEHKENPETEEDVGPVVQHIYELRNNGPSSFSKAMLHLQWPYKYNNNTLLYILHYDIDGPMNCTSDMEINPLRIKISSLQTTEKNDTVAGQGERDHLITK
T1 sequence (P05106 27-788 partner): as the sequence (P05106 27-788 partner) above

AYVFILLSFILGTLLGFLVMFWA [anti-αV]
potency in inducing platelet adhesion to osteopontin, lower than that of anti-αIIb in inducing platelet aggregation (αVβ3): approximately 10 fold
induced adhesion after pre-incubating the platelets with PGE1 (αVβ3; 2 μM PGE1): only minimally affected
induced adhesion in the presence of EDTA or αVβ3 antagonist XJ735 (αVβ3; 2.5 mM EDTA): prevented
platelet adhesion to osteopontin (αVβ3; absence of pharmacological platelet agonists): induced robust platelet adhesion to osteopontin

CC[C@H](C)[C@H](NC(=O)[C@H](Cc1ccccc1)NC(=O)[C@H](Cc1ccccc1)NC(=O)[C@@H]1CCCN1C(=O)[C@H](CC(C)C)NC(=O)[C@H](CC(C)C)NC(=O)[C@H](CCSC)NC(=O)[C@@H](NC(=O)[C@H](Cc1ccc(O)cc1)NC(=O)[C@H](C)NC(=O)[C@H](CCCCN)NC(=O)[C@@H](N)CCCCN)C(C)C)C(=O)NCC(=O)N[C@@H](CC(C)C)C(=O)N[C@@H](CC(C)C)C(=O)N[C@@H](CC(C)C)C(=O)NCC(=O)N[C@@H](CC(C)C)C(=O)N[C@H](C(=O)N[C@@H](Cc1ccccc1)C(=O)NCC(=O)NCC(=O)N[C@@H](C)C(=O)N[C@@H](Cc1ccccc1)C(=O)N[C@@H](Cc1c[nH]c2ccccc12)C(=O)NCC(=O)N1CCC[C@H]1C(=O)N[C@@H](C)C(=O)N[C@@H](CCCNC(=N)N)C(=O)N[C@@H](Cc1c[nH]cn1)C(=O)N[C@@H](CC(C)C)C(=O)N[C@@H](CCCCN)C(=O)N[C@@H](CCCCN)C(N)=O)[C@@H](C)CC [anti-αIIb] (H-KKAYVMLLPFFIGLLLGLIFGGAFWGPARHLKK-NH2; N-terminus assumed)
FITC-labeled fibrinogen bound by platelets (αIIbβ3; 2.0 μM polypeptide, compared with 20 μM ADP): comparable amounts
induced fibrinogen binding in the presence of EDTA (αIIbβ3; 5 mM EDTA): prevented
rupture force between CHO cells expressing αIIbβ3 and fibrinogen-coated beads [1]: peak of rupture force identical to that seen when platelets were incubated with ADP
rupture force peak after pre-incubation of CHO cells with abciximab ([1]; abciximab 200 μg/ml): not present
